According to patent US20250319213A1, “FUNCTIONALIZED BISAMINOTHIOL DERIVATIVES, COMPLEXES WITH THESE BISAMINOTHIOL DERIVATIVES AND USE OF SAID COMPLEXES AS DIAGNOSTICS AND THERAPEUTICS” (ABX ADVANCED BIOCHEMICAL COMPOUNDS – BIOMEDIZINISCHE …, priority 2022, published 2025):

Key:
[1] = Product stability in DPBS at 25° C.; type: physicochemical; conditions: DPBS (+Ca2+, +Mg2+), mean ± SD; for Fraction of radioligand in DPBS at 25° C., 1 h / Fraction of radioligand in DPBS at 25° C., 2 h / Fraction of radioligand in DPBS at 25° C., 4 h / Fraction of radioligand in DPBS at 25° C., 20 h: normalized to fraction immediately after preparation
Protocol: (§1) In brief, the freshly produced ^99mTc-labeled radioligand solution (10-20 MBq, 20-100 μL) was added to the respective medium (200-400 μL), vortexed quickly, and shook gently at the respective temperature mentioned below. At certain time points, samples were taken, diluted, and measured by radio-RP-HPLC. Hereby, investigation of plasma samples included protein precipitation with the 4-fold volume of an ice-cold mixture of methanol/water (4/1, v/v), intensive shaking (5 min) and centrifugation (14,000 rpm, 10 min), before inspection of the supernatant. In addition, the recovery of extracted activity was calculated after activity measurement of supernatant and residue by a gamma counter.

[2] = Product stability in mouse plasma (in vitro); type: in vitro ADME; conditions: mean ± SD (n = 3-4), normalized to fraction immediately after preparation
Protocol: as §1

[3] = Determination of log D values (shake-flask, octanol/medium); type: physicochemical; conditions: for LogD (shake-flask, octanol/medium) Na-phosphate pH 7.4: 4.4 mM Na2HPO4, 2.2 mM NaH2PO4, pH 7.4
Protocol: Log D values were determined for different media by the shake-flask method (Andrés, A.; Rosés, M.; Ràfols, C.; Bosch, E.; Espinosa, S.; Segarra, V.; Huerta, J. M. Setup and validation of shake-flask procedures for the determination of partition coefficients (log D) from low drug amounts. Eur. J. Pharm. Sci. 2015, 76, 181-191.). In preparation, octanol was saturated with each of the used buffer solutions and vice versa. To 3 mL of octanol, together with 3 mL of buffer solution 200-300 μL of the ^99mTc-labeled radioligand (15-25 MBq, samples in triplicate) were added and shaken vigorously for 30 min. After centrifugation at 9,000 rpm for 15 min, samples were taken from both separated phases and measured by gamma-counter. Log D values were calculated as the ratio of radioactivity determined in octanol and aqueous phase.

LNCaP cells = assay: Determination of the internalization (surface binding and internalized activity); type: cell-based, human; conditions: 1 h; for Internalization, 4° C. (% AD/mg Protein) / Internalization, 37° C. (% AD/mg Protein): cytosolic activity; for Internalization, 4° C. (% AD/mg Protein) / Internalization, 37° C. (% AD/mg Protein) / Binding, 4° C. (% AD/mg Protein) / Binding, 37° C. (% AD/mg Protein): 25 nM radioligand, mean ± SEM; for Binding, 4° C. (% AD/mg Protein) / Binding, 37° C. (% AD/mg Protein): surface-bound activity
Protocol: Competition, saturation and internalization assays were assessed using the high PSMA expressing human prostate carcinoma cell line LNCaP (ATCC® CRL-1740). The cells were grown as monolayer at 37° C. in a humidified atmosphere comprising 5% CO2 and 95% air in RPMI medium including 10% FCS (Merck KGAA, Germany). After washing the confluent cells twice with phosphate buffered saline (PBS) and detaching them with trypsin/EDTA (0.05%/0.02%), the cells were suspended in medium and counted (Casy TT, Omni Life Science, Germany).
For internalization LNCaP and PC3 cells were seeded, 1×10^5 cells/well in 24-well plates two days before the assay. On the day of internalization, after aspirating the medium, 100 μL of PBS and, for non-specific binding samples, 100 μL 2-PMPA (100 μM) were pipetted into the wells, followed by 400 μL medium including activity. The concentration of the ^99mTc-labeled radioligands was 25 nM. After 1 h of incubation at 37° C. and adjacent well plates at 4° C., the supernatant was removed and the cells washed with cold PBS. Surface-bound activity was stripped with 4° C. cold acid-wash buffer (0.2 M glycine, pH 2.8) for 5 min. The acid wash buffer was transferred from the plate wells to measuring tubes, as was the PBS buffer after washing once (binding on the surface). Cytosolic activity was determined after treatment with cell lysis buffer (0.1 M NaOH/1% SDS). Cell surface and cytosolic activity were measured separately in a gamma counter. Determination of protein content from cell lysate was performed using a spectrophotometer (NanoDrop, Thermo Fisher Scientific, USA) at an absorbance of 280 nm.

[4] = Product stability at room temperature (without addition of any media); type: physicochemical; conditions: no media, radio-RP-HPLC
Protocol: as §1

[5] = test system: subcutaneous LNCaP tumor xenografts; assay: SPECT/CT and PET/CT imaging in LNCaP tumor bearing mice; type: in vivo; conditions: LNCaP tumor bearing mice after 1 h and 4 h (FIG. 5)
Protocol: A prostate cancer xenograft model was generated via subcutaneous injection of human LNCaP cells into the right shoulder of 8-12 week-old male nude mice (Rj:NMRI-Foxn1^nu/nu, Janvier Labs, Le Genest-Saint-Isle, France). Imaging studies were performed when tumors reached a diameter of >6 mm. General anesthesia was induced and maintained with inhalation of 10% (v/v) desflurane in […] oxygen/air. During anesthesia, animals were continuously warmed at 37° C.
Small animal single-photon emission computed tomography (SPECT) was performed using the nanoSPECT/CT scanner (Mediso Medical Imaging Systems) equipped with an APT63 aperture consisting of four M3 multi-pinhole collimators. Each animal received 30 MBq of ^99mTc-labeled compounds delivered in 0.2 mL of Dulbecco's phosphate-buffered saline as a single intravenous injection through a tail vein catheter. Photon emission was recorded using frame times of 60 s (1 h scan: 40-70 min), 90 s (4 h scan, 3.5-4.5 h), and 320 s (20 h scan, 18.5-21.5 h), and binned simultaneously within the 20% energy window of the 140.5 keV photopeak. With each SPECT scan, a corresponding CT image was recorded and used for anatomical referencing and attenuation correction. SPECT images were reconstructed using the Tera-Tomo™ three-dimensional (3D) algorithm at normal range with a voxel size of 0.4 mm and applying corrections for scatter attenuation, and decay.
Small animal positron emission tomography (PET) was performed using the nanoPET/CT scanner (Mediso Medical Imaging Systems). Each animal received 10 MBq of the radiolabeled reference compound [^68Ga]Ga-PSMA-11 delivered in Dulbecco's phosphate-buffered saline as a single intravenous injection through a tail vein catheter. Emission of the 511 keV annihilation photons was recorded continuously at a coincidence mode of 1:5 for 60 min following radiotracer injection. With each PET scan, a corresponding CT image was recorded and used for anatomical referencing and attenuation correction. Three-dimensional list mode data were binned using the 400-600 keV energy window. PET images of the 40-60 min time frame were reconstructed using the Tera-Tomo™ three-dimensional (3D) algorithm with a voxel size of 0.4 mm and applying corrections for random events, scatter, attenuation, and decay.
Three-dimensional VOIs were created applying fixed threshold for delineation of tumor (30%), muscle (0%); and kidneys (39%). Standardized uptake values (SUV=[MBq detected activity/mL tissue]/[MBq injected activity/g body weight], mL/g) were determined and reported as max SUV (VOI-maximum). Time-activity curves were generated and further analyzed using Prism (GraphPad Software, San Diego CA, USA).

Fraction of radioligand in DPBS at 25° C., 1 h [1] | Fraction of radioligand in DPBS at 25° C., 2 h [1] | Fraction of radioligand in DPBS at 25° C., 4 h [1] | Fraction of radioligand in DPBS at 25° C., 20 h [1] | Fraction of radioligand after 6 h in mouse plasma at 37° C. [2] | LogD (shake-flask, octanol/medium) Na-phosphate pH 7.4 [3] | LogD (shake-flask, octanol/medium) PBS 0.1M pH 7.4 [3] | LogD (shake-flask, octanol/medium) TRIS buffer 0.1M pH 7.4 [3] | Fraction of radioligand at indicated time point after preparation, 0 h [4] | Fraction of radioligand at indicated time point after preparation, 2 h [4] | Fraction of radioligand at indicated time point after preparation, 4 h [4] | Fraction of radioligand at indicated time point after preparation, 6 h [4] | tumor-to-liver ratios among the [99mTc]-labeled radioligands [5] | tumor-to-muscle ratios among the [99mTc]-labeled radioligands [5] | Fraction of radioligand in DPBS at 25° C., after 6 h instead of 4 h ([1]; 6 h (footnote &), normalized) | Compound | % Internalization, 37° C. (LNCaP cells) | Internalization, 4° C. (% AD/mg Protein) (LNCaP cells) | Internalization, 37° C. (% AD/mg Protein) (LNCaP cells) | Binding, 4° C. (% AD/mg Protein) (LNCaP cells) | Binding, 37° C. (% AD/mg Protein) (LNCaP cells)
101.5 ± 0.6% | 99.5 ± 0.8% | 100.2 ± 1.0% | 93.5 ± 1.8% | 96.8 ± 0.3% | −2.18 ± 0.002 | −1.62 ± 0.01 | −2.18 ± 0.01 | – | – | – | – | – | – | – | CC1(C)CN(CCCCC(=O)N[C@@H](Cc2ccccc2)C(=O)N[C@@H](Cc2ccccc2)C(=O)N[C@@H](CCCCNC(=O)CCCCCCC(=O)NCCCC[C@H](NC(=O)N[C@@H](CCC(=O)O)C(=O)O)C(=O)O)C(=O)O)CC[N]2CC(C)(C)[S][99Tc]2(=[O])[S]1 (stereo partly drawn) [[^99mTc]TcO-1] | – | – | – | – | –
89.9 ± 2.3% | 97.7 ± 2.3% | 80.7 ± 12.0% | 89.2 ± 2.7% | 98.3 ± 1.1% | −2.08 ± 0.01 | −2.16 ± 0.03 | −2.16 ± 0.02 | – | – | – | – | – | – | – | CC1(C)CN(CCCCC(=O)N[C@@H](Cc2ccccc2)C(=O)N[C@@H](Cc2ccccc2)C(=O)N[C@H](CCCCNC(=O)CCCCCCC(=O)NCCCC[C@H](NC(=O)N[C@@H](CCC(=O)O)C(=O)O)C(=O)O)C(=O)O)CC[N]2CC(C)(C)[S][99Tc]2(=[O])[S]1 (stereo partly drawn) [[^99mTc]TcO-2] | – | – | – | – | –
98.2 ± 1.9% | 97.3 ± 3.6% | 98.4 ± 1.0% | 89.1 ± 7.4% | 98.5 ± 0.8% | −1.93 ± 0.01 | −2.07 ± 0.01 | −2.08 ± 0.02 | 96% | 93% | 92% | 91% | – | – | – | CC1(C)CN(CCCCC(=O)N[C@@H](CCCCNC(=O)CCCCCCC(=O)NCCCC[C@H](NC(=O)N[C@@H](CCC(=O)O)C(=O)O)C(=O)O)C(=O)O)CC[N]2CC(C)(C)[S][99Tc]2(=[O])[S]1 (stereo partly drawn) [[^99mTc]TcO-3] | 35.8% | 0.7 ± 0.2 % AD/mg Protein | 1.0 ± 0.3 % AD/mg Protein | 2.1 ± 1.2 % AD/mg Protein | 1.8 ± 0.3 % AD/mg Protein
75.9 ± 0.2% | 74.4 ± 0.1% | – | 18.7% | – | – | – | – | 89% | 87% | 88% | 85% | a marked or a significant increase | a marked or a significant increase | 72.3 ± 0.9%^& | O=C(O)CC[C@H](NC(=O)N[C@@H](CCCCNC(=O)CCCCCCC(=O)NCCCC[C@@H](NC(=O)[C@H](CCC(=O)O)NC(=O)[C@H](CCC(=O)O)NC(=O)CCC(=O)NCCCN1CC[S][99Tc]2(=[O])[S]CC[N]2CC1)C(=O)O)C(=O)O)C(=O)O (stereo partly drawn) [[^99mTc]TcO-6] | 38.5% | 0.2 ± 0.0 % AD/mg Protein | 2.9 ± 0.2 % AD/mg Protein | 2.5 ± 0.4 % AD/mg Protein | 4.7 ± 0.2 % AD/mg Protein
